Measurements published in the NIST ThermoML archive (doi:10.1016/j.jct.2003.11.012).
± gives the expanded uncertainty stated by the source.

Columns and labels:
[1] = molar heat capacity at saturation pressure
[2] = for vapor or sublimation pressure: Liquid; for Triple point temperature: Adiabatic calorimetry
[3] = Molar enthalpy of transition or fusion

C1CCC(SC2CCCCC2)CC1 [dicyclohexyl sulfide]
[1]
Conditions	molar heat capacity [J/K/mol]
5 K, Crystal 3	0.65 ± 0.02
7.076 K, Crystal 3, Vacuum adiabatic calorimetry	1.83 ± 0.03
8.093 K, Crystal 3, Vacuum adiabatic calorimetry	2.68 ± 0.03
9.092 K, Crystal 3, Vacuum adiabatic calorimetry	3.7 ± 0.04
10 K, Crystal 3	4.79 ± 0.03
10.12 K, Crystal 3, Vacuum adiabatic calorimetry	4.94 ± 0.06
11.22 K, Crystal 3, Vacuum adiabatic calorimetry	6.32 ± 0.07
12.48 K, Crystal 3, Vacuum adiabatic calorimetry	8.05 ± 0.07
13.88 K, Crystal 3, Vacuum adiabatic calorimetry	10.26 ± 0.091
15 K, Crystal 3	12.08 ± 0.06
15.44 K, Crystal 3, Vacuum adiabatic calorimetry	12.81 ± 0.1
17.17 K, Crystal 3, Vacuum adiabatic calorimetry	15.8 ± 0.12
19.09 K, Crystal 3, Vacuum adiabatic calorimetry	19.16 ± 0.12
20 K, Crystal 3	20.77 ± 0.07
21.2 K, Crystal 3, Vacuum adiabatic calorimetry	22.91 ± 0.13
23.53 K, Crystal 3, Vacuum adiabatic calorimetry	27.09 ± 0.14
25 K, Crystal 3	29.63 ± 0.083
26.12 K, Crystal 3, Vacuum adiabatic calorimetry	31.54 ± 0.15
29 K, Crystal 3, Vacuum adiabatic calorimetry	36.28 ± 0.14
30 K, Crystal 3	37.98 ± 0.07
32.2 K, Crystal 3, Vacuum adiabatic calorimetry	41.46 ± 0.12
33.51 K, Crystal 3, Vacuum adiabatic calorimetry	43.05 ± 0.13
35 K, Crystal 3	45.26 ± 0.07
35.74 K, Crystal 3, Vacuum adiabatic calorimetry	46.49 ± 0.13
36 K, Crystal 3	46.79 ± 0.07
37 K, Crystal 3	48.49 ± 0.07
37.54 K, Crystal 3, Vacuum adiabatic calorimetry	49.5 ± 0.14
38 K, Crystal 3	50.1 ± 0.083
39 K, Crystal 3	53.43 ± 0.12
39.08 K, Crystal 3, Vacuum adiabatic calorimetry	53.4 ± 0.16
40 K, Crystal 3	59.33 ± 0.24
40.2 K, Crystal 3	61.57 ± 0.3
40.4 K, Crystal 3	65.04 ± 0.46
40.6 K, Crystal 3	70.56 ± 0.71
40.8 K, Crystal 3	79.24 ± 1.1
41 K, Crystal 3	92.56 ± 1.5
41.1 K, Crystal 3	101.56 ± 2
41.2 K, Crystal 3	112.49 ± 2.4
41.3 K, Crystal 3	125.67 ± 2.7
41.35 K, Crystal 2	132.62 ± 1.6
41.35 K, Crystal 3	132.62 ± 2.7
41.4 K, Crystal 2	124.85 ± 1.4
41.5 K, Crystal 2	113.3 ± 1.1
41.6 K, Crystal 2	103.72 ± 1.2
41.7 K, Crystal 2	95.82 ± 1.1
41.8 K, Crystal 2	89.37 ± 1.1
41.9 K, Crystal 2	84.14 ± 1
42 K, Crystal 2	79.94 ± 0.96
42.1 K, Crystal 2	76.58 ± 0.84
42.2 K, Crystal 2	73.92 ± 0.68
42.3 K, Crystal 2	71.85 ± 0.55
42.4 K, Crystal 2	70.24 ± 0.47
42.5 K, Crystal 2	68.99 ± 0.42
42.6 K, Crystal 2	68.04 ± 0.36
42.7 K, Crystal 2	67.3 ± 0.17
42.8 K, Crystal 2	66.72 ± 0.16
42.9 K, Crystal 2	66.27 ± 0.14
43 K, Crystal 2	65.89 ± 0.13
44 K, Crystal 2	63.21 ± 0.091
44.5 K, Crystal 2, Vacuum adiabatic calorimetry	62.94 ± 0.17
45 K, Crystal 2	62.78 ± 0.083
45.83 K, Crystal 2, Vacuum adiabatic calorimetry	62.98 ± 0.17
46 K, Crystal 2	63.03 ± 0.083
48 K, Crystal 2	64 ± 0.083
48.81 K, Crystal 2, Vacuum adiabatic calorimetry	64.58 ± 0.17
50 K, Crystal 2	65.53 ± 0.091
53.62 K, Crystal 2, Vacuum adiabatic calorimetry	68.84 ± 0.18
54.45 K, Crystal 2, Vacuum adiabatic calorimetry	69.65 ± 0.18
55 K, Crystal 2	70.15 ± 0.091
58.57 K, Crystal 2, Vacuum adiabatic calorimetry	73.26 ± 0.19
60 K, Crystal 2	74.51 ± 0.1
64.06 K, Crystal 2, Vacuum adiabatic calorimetry	78.07 ± 0.2
70 K, Crystal 2	83.42 ± 0.11
70.24 K, Crystal 2, Vacuum adiabatic calorimetry	83.65 ± 0.21
77.05 K, Crystal 2, Vacuum adiabatic calorimetry	89.46 ± 0.22
80 K, Crystal 2	91.91 ± 0.12
82.72 K, Crystal 2, Vacuum adiabatic calorimetry	94.2 ± 0.23
84.66 K, Crystal 2, Vacuum adiabatic calorimetry	95.88 ± 0.23
89.87 K, Crystal 2, Vacuum adiabatic calorimetry	100.11 ± 0.24
90 K, Crystal 2	100.24 ± 0.15
93.06 K, Crystal 2, Vacuum adiabatic calorimetry	102.76 ± 0.3
98.25 K, Crystal 2, Vacuum adiabatic calorimetry	106.88 ± 0.31
100 K, Crystal 2	108.32 ± 0.16
101.97 K, Crystal 2, Vacuum adiabatic calorimetry	109.92 ± 0.31
107.36 K, Crystal 2, Vacuum adiabatic calorimetry	114.09 ± 0.32
117.01 K, Crystal 2, Vacuum adiabatic calorimetry	121.51 ± 0.32
120 K, Crystal 2	123.79 ± 0.17
126.84 K, Crystal 2, Vacuum adiabatic calorimetry	128.96 ± 0.33
136.8 K, Crystal 2, Vacuum adiabatic calorimetry	136.33 ± 0.33
140 K, Crystal 2	138.69 ± 0.17
146.83 K, Crystal 2, Vacuum adiabatic calorimetry	143.7 ± 0.34
156.79 K, Crystal 2, Vacuum adiabatic calorimetry	151.02 ± 0.35
160 K, Crystal 2	153.38 ± 0.17
167.83 K, Crystal 2, Vacuum adiabatic calorimetry	159.16 ± 0.36
179.9 K, Crystal 2, Vacuum adiabatic calorimetry	168.19 ± 0.37
180 K, Crystal 2	168.28 ± 0.18
192 K, Crystal 2, Vacuum adiabatic calorimetry	177.65 ± 0.37
200 K, Crystal 2	184.16 ± 0.19
204.1 K, Crystal 2, Vacuum adiabatic calorimetry	187.6 ± 0.39
212.64 K, Crystal 2, Vacuum adiabatic calorimetry	194.77 ± 0.4
216.18 K, Crystal 2, Vacuum adiabatic calorimetry	197.93 ± 0.4
220 K, Crystal 2	201.6 ± 0.2
223.24 K, Crystal 2, Vacuum adiabatic calorimetry	204.46 ± 0.41
227.23 K, Crystal 2, Vacuum adiabatic calorimetry	208.11 ± 0.41
229.69 K, Crystal 2, Vacuum adiabatic calorimetry	210.53 ± 0.41
233.56 K, Crystal 2, Vacuum adiabatic calorimetry	214.23 ± 0.42
239.46 K, Crystal 2, Vacuum adiabatic calorimetry	220.49 ± 0.42
240 K, Crystal 2	221.21 ± 0.21
243.62 K, Crystal 2, Vacuum adiabatic calorimetry	224.96 ± 0.42
245.76 K, Crystal 2, Vacuum adiabatic calorimetry	227.13 ± 0.42
249.49 K, Crystal 2, Vacuum adiabatic calorimetry	232.29 ± 0.43
250 K, Crystal 2	231.72 ± 0.22
252.11 K, Crystal 2, Vacuum adiabatic calorimetry	235.33 ± 0.44
255.1 K, Crystal 2, Vacuum adiabatic calorimetry	241.32 ± 0.45
255.37 K, Crystal 2, Vacuum adiabatic calorimetry	242.85 ± 0.45
256.11 K, Crystal 2, Vacuum adiabatic calorimetry	244.36 ± 0.45
258.04 K, Crystal 2, Vacuum adiabatic calorimetry	251.78 ± 0.47
258.75 K, Crystal 2, Vacuum adiabatic calorimetry	257.57 ± 0.48
260 K, Crystal 2	264.46 ± 0.26
264.7 K, Crystal 1	315.22 ± 0.26
264.7 K, Crystal 2	316.1 ± 0.34
267.11 K, Crystal 1, Vacuum adiabatic calorimetry	316.81 ± 0.52
270 K, Crystal 1	318.74 ± 0.26
270.5 K, Crystal 1, Vacuum adiabatic calorimetry	319.58 ± 0.52
270.99 K, Crystal 1, Vacuum adiabatic calorimetry	319.82 ± 0.52
272.57 K, Crystal 1, Vacuum adiabatic calorimetry	320.97 ± 0.52
274.72 K, Crystal 1, Vacuum adiabatic calorimetry	322.6 ± 0.52
275.18 K, Crystal 1, Vacuum adiabatic calorimetry	322.61 ± 0.52
276.68 K, Crystal 1, Vacuum adiabatic calorimetry	324.34 ± 0.52
277.72 K, Crystal 1, Vacuum adiabatic calorimetry	325.42 ± 0.52
278.97 K, Crystal 1, Vacuum adiabatic calorimetry	327.22 ± 0.53
280 K, Crystal 1	325.48 ± 0.27
284.2 K, Crystal 1	328.37 ± 0.27
284.2 K, Liquid	317.32 ± 0.26
298.15 K, Liquid	326.14 ± 0.27
300 K, Liquid	327.33 ± 0.27
320 K, Liquid	340.79 ± 0.27
340 K, Liquid	354.76 ± 0.27
360 K, Liquid	369.3 ± 0.28
380 K, Liquid	384.16 ± 0.29
400 K, Liquid	399.24 ± 0.3
420 K, Liquid	414.4 ± 0.31
440 K, Liquid	429.57 ± 0.32

[1], Liquid, Vacuum adiabatic calorimetry
Conditions	molar heat capacity [J/K/mol]
287.6 K	319.48 ± 0.52
289.37 K	320.58 ± 0.52
290.6 K	321.35 ± 0.52
296.18 K	324.86 ± 0.52
296.81 K	325.28 ± 0.52
307.92 K	332.58 ± 0.53
321.65 K	341.93 ± 0.54
336.79 K	352.46 ± 0.55
352.3 K	363.66 ± 0.56
367.76 K	375.02 ± 0.57
383 K	386.42 ± 0.59
398.09 K	397.79 ± 0.6
413.1 K	409.16 ± 0.61
428.06 K	420.5 ± 0.62
439.99 K	429.5 ± 0.63

Conditions	Molar enthalpy of transition or fusion [kcal/mol]	Triple point temperature [K]	vapor or sublimation pressure [kPa]
[2], 334.98 K	–	–	0.0195 ± 0.0005
[2], 344.99 K	–	–	0.0387 ± 0.0005
[2], 354.98 K	–	–	0.073 ± 0.0006
[2], 364.98 K	–	–	0.1323 ± 0.0006
[2], 374.98 K	–	–	0.2307 ± 0.0007
[2], 384.97 K	–	–	0.3883 ± 0.0008
[2], 394.98 K	–	–	0.6338 ± 0.001
[2], 404.98 K	–	–	1.004 ± 0.0014
[2], 414.96 K	–	–	1.546 ± 0.0018
[2], 419.97 K	–	–	1.902 ± 0.0022
[2], 424.96 K	–	–	2.324 ± 0.0025
[2], 429.96 K	–	–	2.825 ± 0.0028
[2], Crystal 1	–	284.2 ± 0.05	–
[2], Crystal 2	–	264.7 ± 0.05	–
[2], Crystal 3	–	41.35 ± 0.1	–
[3], Crystal 1	1.358 ± 0.00263	–	–
[3], Crystal 2	2.392 ± 0.00263	–	–
